Measured values reported in ChEMBL document CHEMBL5715937, “In vitro activity of Bcr-Abl inhibitors AMN107 and BMS-354825 against clinically relevant imatinib-resistant Abl kinase domain mutants” (Cancer Res, 2005).
Active and inactive are the calls of the source. The calls are words filed in the database; no cut-off is given here.

Columns and labels:
[1] = Inhibition of BCR-ABL F359V mutant (unknown origin) expressed in mouse BaF3 cells assessed as inhibition of cell growth incubated for 72 hrs by […] CellTiter96 viability analysis
[2] = Inhibition of BCR-ABL V379l mutant (unknown origin) expressed in mouse BaF3 cells assessed as inhibition of cell growth incubated for 72 hrs by […] CellTiter96 viability analysis
[3] = Inhibition of BCR-ABL H396P mutant (unknown origin) expressed in mouse BaF3 cells assessed as inhibition of cell growth incubated for 72 hrs by […] CellTiter96 viability analysis
[4] = Inhibition of BCR-ABL H396R mutant (unknown origin) expressed in mouse BaF3 cells assessed as inhibition of cell growth incubated for 72 hrs by […] CellTiter96 viability analysis
[5] = Inhibition of BCR-ABL V379l mutant (unknown origin) expressed in mouse BaF3 cells assessed as inhibition of tyrosine phosphorylation incubated for 3 hrs by immunoblotting analysis; format: cell-based; conditions: BaF3, 3 h
[6] = Inhibition of BCR-ABL H396P mutant (unknown origin) expressed in mouse BaF3 cells assessed as inhibition of tyrosine phosphorylation incubated for 3 hrs by immunoblotting analysis; format: cell-based; conditions: BaF3, 3 h
BaF3 [7] = assay: Induction of apoptosis in mouse BaF3 cells expressing wild-type Bcr-Abl at 30 to 300 nM incubated for 72 hrs by Annexin V-phycoerythrin and 7-amino-actinomycin D staining based PCA instrument analysis; format: functional, cell-based; conditions: dose 30-300 nM
BaF3 [8] = assay: Induction of apoptosis in mouse BaF3 cells expressing Bcr-Abl M244V mutant at 30 to 300 nM incubated for 72 hrs by Annexin V-phycoerythrin and 7-amino-actinomycin D staining based PCA instrument analysis; format: functional, cell-based; conditions: dose 30-300 nM
BaF3 [9] = assay: Induction of apoptosis in mouse BaF3 cells expressing Bcr-Abl G250E mutant at 30 to 300 nM incubated for 72 hrs by Annexin V-phycoerythrin and 7-amino-actinomycin D staining based PCA instrument analysis; format: functional, cell-based; conditions: dose 30-300 nM
BaF3 [10] = assay: Induction of apoptosis in mouse BaF3 cells expressing Bcr-Abl Y253F mutant at 30 to 300 nM incubated for 72 hrs by Annexin V-phycoerythrin and 7-amino-actinomycin D staining based PCA instrument analysis; format: functional, cell-based; conditions: dose 30-300 nM
BaF3 [11] = assay: Induction of apoptosis in mouse BaF3 cells expressing Bcr-Abl F311L mutant at 30 to 300 nM incubated for 72 hrs by Annexin V-phycoerythrin and 7-amino-actinomycin D staining based PCA instrument analysis; format: functional, cell-based; conditions: dose 30-300 nM
BaF3 [12] = assay: Induction of apoptosis in mouse BaF3 cells expressing Bcr-Abl F317L mutant at 30 to 300 nM incubated for 72 hrs by Annexin V-phycoerythrin and 7-amino-actinomycin D staining based PCA instrument analysis; format: functional, cell-based; conditions: dose 30-300 nM
BaF3 [13] = assay: Induction of apoptosis in mouse BaF3 cells expressing Bcr-Abl F359V mutant at 30 to 300 nM incubated for 72 hrs by Annexin V-phycoerythrin and 7-amino-actinomycin D staining based PCA instrument analysis; format: functional, cell-based; conditions: dose 30-300 nM
BaF3 [14] = assay: Induction of apoptosis in mouse BaF3 cells expressing Bcr-Abl L387M mutant at 30 to 300 nM incubated for 72 hrs by Annexin V-phycoerythrin and 7-amino-actinomycin D staining based PCA instrument analysis; format: functional, cell-based; conditions: dose 30-300 nM
BaF3 [15] = assay: Induction of apoptosis in mouse BaF3 cells expressing Bcr-Abl H396P mutant at 30 to 300 nM incubated for 72 hrs by Annexin V-phycoerythrin and 7-amino-actinomycin D staining based PCA instrument analysis; format: functional, cell-based; conditions: dose 30-300 nM
BaF3 [16] = assay: Induction of apoptosis in mouse BaF3 cells expressing Bcr-Abl H396R mutant at 30 to 300 nM incubated for 72 hrs by Annexin V-phycoerythrin and 7-amino-actinomycin D staining based PCA instrument analysis; format: functional, cell-based; conditions: dose 30-300 nM
BaF3 [17] = assay: Induction of apoptosis in mouse BaF3 cells expressing Bcr-Abl M244V mutant assessed as increase in apoptotic cells at 1500 nM incubated for 72 hrs by Annexin V-phycoerythrin and 7-amino-actinomycin D staining based PCA instrument analysis relative to control; format: functional
BaF3 [18] = assay: Induction of apoptosis in mouse BaF3 cells expressing Bcr-Abl G250E mutant assessed as increase in apoptotic cells at 1500 nM incubated for 72 hrs by Annexin V-phycoerythrin and 7-amino-actinomycin D staining based PCA instrument analysis relative to control; format: functional
BaF3 [19] = assay: Induction of apoptosis in mouse BaF3 cells expressing Bcr-Abl Y253F mutant assessed as increase in apoptotic cells at 1500 nM incubated for 72 hrs by Annexin V-phycoerythrin and 7-amino-actinomycin D staining based PCA instrument analysis relative to control; format: functional
BaF3 [20] = assay: Induction of apoptosis in mouse BaF3 cells expressing Bcr-Abl T315l mutant assessed as increase in apoptotic cells at 1500 nM incubated for 72 hrs by Annexin V-phycoerythrin and 7-amino-actinomycin D staining based PCA instrument analysis relative to control; format: functional
BaF3 [21] = assay: Induction of apoptosis in mouse BaF3 cells expressing Bcr-Abl F317L mutant assessed as increase in apoptotic cells at 1500 nM incubated for 72 hrs by Annexin V-phycoerythrin and 7-amino-actinomycin D staining based PCA instrument analysis relative to control; format: functional
BaF3 [22] = assay: Induction of apoptosis in mouse BaF3 cells expressing Bcr-Abl F359V mutant assessed as increase in apoptotic cells at 1500 nM incubated for 72 hrs by Annexin V-phycoerythrin and 7-amino-actinomycin D staining based PCA instrument analysis relative to control; format: functional
BaF3 [23] = assay: Induction of apoptosis in mouse BaF3 cells expressing Bcr-Abl H396P mutant assessed as increase in apoptotic cells at 1500 nM incubated for 72 hrs by Annexin V-phycoerythrin and 7-amino-actinomycin D staining based PCA instrument analysis relative to control; format: functional
BaF3 [24] = assay: Induction of apoptosis in mouse BaF3 cells at 30 to 1500 nM incubated for 72 hrs by Annexin V-phycoerythrin and 7-amino-actinomycin D staining based PCA instrument analysis relative to control; format: toxicity, cell-based; conditions: baf3, 72 h, 1.5 µM, dose 30-1500 nM
BaF3 [25] = assay: Induction of apoptosis in mouse BaF3 cells expressing Bcr-Abl T315I mutant at 30 to 1500 nM incubated for 72 hrs by Annexin V-phycoerythrin and 7-amino-actinomycin D staining based PCA instrument analysis relative to control; format: functional, cell-based; conditions: dose 30-1500 nM
cells [26] = conditions: Mus musculus, BaF3, 72 h
cells [27] = conditions: Mus musculus, BaF3, 3 h
cells [28] = conditions: Mus musculus, BaF3, 3 h; remark: listed apart in the source
cells [29] = conditions: Mus musculus, BaF3, 3 h; remark: listed apart in the source
cells [30] = conditions: Mus musculus, BaF3, 3 h; remark: listed apart in the source
cells [31] = conditions: Mus musculus, BaF3, 3 h; remark: listed apart in the source
cells [32] = conditions: Mus musculus, BaF3, 3 h; remark: listed apart in the source
[33] = BaF3, time 72 hrs, condition chronic myelogenous leukemia

- IC50 [5]: 15 nM
- IC50 [6]: 70 nM
- IC50 (cells [26]): > 2000 nM
- IC50 (cells [27]): 15 nM
- IC50 (cells [28]): 55 nM
- IC50 (cells [29]): 155 nM
- IC50 (cells [30]): 47 nM
- IC50 (cells [31]): 43 nM
- IC50 (cells [32]): 22 nM
SMILES: Cc1cn(-c2cc(NC(=O)c3ccc(C)c(Nc4nccc(-c5cccnc5)n4)c3)cc(C(F)(F)F)c2)cn1 [NILOTINIB]
- IC50 ([1]; BaF3, 72 h): 175 nM
- IC90 [1, 33]: 385 nM
- IC50 ([2]; BaF3, 72 h): 51 nM
- IC90 [2, 33]: 115 nM
- IC50 ([3]; BaF3, 72 h): 41 nM
- IC90 [3, 33]: 69 nM
- IC50 ([4]; BaF3, 72 h): 41 nM
- IC90 [4, 33]: 73 nM
- Activity (BaF3 [7]): Active
- Activity (BaF3 [8]): Active
- Activity (BaF3 [9]): Active
- Activity (BaF3 [10]): Active
- Activity (BaF3 [11]): Active
- Activity (BaF3 [12]): Active
- Activity (BaF3 [13]): Active
- Activity (BaF3 [14]): Active
- Activity (BaF3 [15]): Active
- Activity (BaF3 [16]): Active
- Activity (BaF3 [17]): >90%
- Activity (BaF3 [18]): >90%
- Activity (BaF3 [19]): >90%
- Activity (BaF3 [20]): 3%
- Activity (BaF3 [21]): >90%
- Activity (BaF3 [22]): >90%
- Activity (BaF3 [23]): >90%
- Activity (BaF3 [24]): Non-Toxic
- Activity (BaF3 [25]): inactive
